# Laboratory results reported in ChEMBL document CHEMBL1139958, “Synthesis and biological evaluation of analogues of the anti-tumor alkaloid naamidine A” (Bioorg Med Chem Lett, 2007).
# Experiment: Inhibition IL3-dependent mitogenesis of mouse BaF/ERX cells by [3H]thymidine incorporation assay
# Type: functional, cell-based
row,IC50,Compound
1,75 µM,COc1ccc(Cc2[nH]c(=N)n(C)c2Cc2ccc(O)cc2)cc1 [NAAMINE A]
2,10 µM,COc1ccc(-c2nc(NC3=NC(=O)N(C)C3=O)sc2-c2ccc(OC)cc2)cc1

# Experiment: Inhibition EGF-dependent mitogenesis of mouse BaF/ERX cells by [3H]thymidine incorporation assay
# Type: functional, cell-based
row,Compound,IC50
1,CN1C(=O)N=C(Nc2ncc(Cc3ccc(O)cc3)n2C)C1=O,4 µM
2,CN1C(=O)N=C(Nc2nc(Cc3ccc(OCc4ccccc4)cc3)c(Cc3ccc(O)cc3)s2)C1=O,> 75 µM
3,COc1ccc(Cc2[nH]c(=N)n(C)c2Cc2ccc(O)cc2)cc1 [NAAMINE A],75 µM
4,COc1ccc(Cc2nc(NC3=NC(=O)N(C)C3=O)n(C)c2Cc2ccc(O)cc2)cc1,3 µM
5,Nc1nc(-c2ccccc2)c(-c2ccccc2)s1,> 75 µM
6,CN1C(=O)N=C(Nc2nc(-c3ccc(O)cc3)c(-c3ccc(O)cc3)s2)C1=O,5 µM
7,COc1ccc(Cc2nc(NC3=NC(=O)N(C)C3=O)sc2Cc2ccc(O)cc2)cc1,10 µM
8,CN1C(=O)N=C(Nc2nc(-c3ccccc3)c(Cc3ccc(O)cc3)s2)C1=O,25 µM
9,COc1ccc(-c2nc(NC(=O)NCc3ccccc3)sc2-c2ccc(OC)cc2)cc1,> 75 µM
10,COc1ccc(-c2nc(NC3=NC(=O)N(C)C3=O)sc2-c2ccc(OC)cc2)cc1,50 µM

# Second part, the compound after the results:
row,IC50,Compound
1,15 µM,CN1C(=O)N=C(Nc2nc(-c3ccc(Cl)cc3)c(Cc3ccc(O)cc3)s2)C1=O
2,> 75 µM,Nc1nc(-c2ccc(O)cc2)c(-c2ccc(O)cc2)s1
3,> 75 µM,CN1C(=O)N=C(Nc2nc(-c3ccccc3)c(-c3ccccc3)s2)C1=O
4,> 75 µM,COc1ccc(-c2nc(N)sc2-c2ccc(OC)cc2)cc1
5,12 µM,COc1ccc(-c2nc(NC(=O)[C@H](C)N)sc2-c2ccc(OC)cc2)cc1
6,18 µM,COc1ccc(Cc2nc(N)sc2Cc2ccc(O)cc2)cc1
7,50 µM,Nc1nc(-c2ccccc2)c(Cc2ccc(O)cc2)s1
